The values that follow come from paper PMC9557946, “Intermittent MEK inhibition for the treatment of metastatic uveal melanoma” (Frontiers in Oncology, 2022).

Series [1] in a line: Pharmacokinetic analysis in serum (LC-MS/MS, non-compartmental).
Experimental: Non-compartmental analyses were performed on the data for day 1, 2, 15 and 17 using Winnonlin software (Phoenix Winnonlin 8.3.1.5014, Certara L.P., Princeton, NJ). […] Data were summarized per dose level and per occasion. Dose-exposure relationships were explored by plotting dose versus the various parameters. Accumulation was investigated using the AUC assessed at various days.
Series [2] deals with SKMEL28 melanoma cell lines. Further details: method as in PMID 31874374. The following applies: intermittently administered; ref [19]; cited from earlier work.

Structures are written as SMILES.

For the compound `O=C(NOCCO)c1cc2nc[nH]c2c(F)c1Nc1ccc(Br)cc1Cl` [N-desmethyl-selumetinib], the accumulation entry in series [1] (during three days of dosing and repeated three-day courses) is on record as “little to no accumulation”. Also, the average terminal half-life in series [1] (from 8h serum concentration curves, likely an underestimation) was 4.3 h. For the same compound, the “time to maximum serum concentration after oral intake” value in series [1] (overall) is “approximately 1.7 hours”.
On to `O=C(c1ccc(F)c(F)c1Nc1ccc(I)cc1F)N1CC(O)([C@@H]2CCCCN2)C1` [cobimetinib], for which the “effect of treatment interruptions on tumor growth” value in series [2] was “Treatment interruptions resulted in tumor regrowth that could not be compensated when drug administration was resumed”.
